Data set [1] can be described thus: logP by HPLC on reversed-phase column (C 18), EEC Directive 79/831 Annex V.A8. The format is physicochemical. How it is done:
In table 1, the logP values were determined in accordance with EEC Directive 79/831 Annex V.A8 by HPLC (High Performance Liquid Chromatography) on a reversed-phase column (C 18), using the method described below: Temperature: 40° C.; […]

Data set [2] deals with Alternaria solani. Nature of the data set: In vivo preventive test on Alternaria solani (tomato). The conditions noted are these: evaluated 7 days after inoculation. An excerpt:
One day after this treatment, the plants are inoculated with an aqueous spore suspension of Alternaria solani.

For data set [3], the system named is Pyrenophora teres. Nature of the data set: In vivo preventive test on Pyrenophora teres (barley). The settings on record: 500 ppm of active ingredient, evaluated 7-9 days after inoculation. From the text: One day after this treatment, the plants are inoculated with an aqueous spore suspension of Pyrenophora teres.

“And” between values parts separate entries of the source, which are not always exact repeats. Equal entries are not always repeated. Where two headings read alike, the source gives them in different places.

On to `CC(C)N(CCc1ccccc1)C(=O)c1c(C(F)F)nn(C)c1F` [Example 2], for which the logP (usually a log measure of how a compound divides between an organic and an aqueous phase) in data set [1] is given as 3.19.

Compound `Cn1nc(C(F)F)c(C(=O)NCCc2cccc(Oc3ccccc3)c2)c1Cl` [Example 145] came in with a logP in data set [1] of 3.55. This compound also had an Efficacy in data set [2] (500 ppm of active ingredient) of 95%.

As for `CC(C)N(CCc1ccc(F)cc1)C(=O)c1c(C(F)F)nn(C)c1Cl` [Example 25], the logP in data set [1] is given as 3.37.

`Cn1nc(C(F)F)c(C(=O)N(CCc2ccccc2)CC(F)(F)F)c1Cl` [Example 10] returned a logP in data set [1] of 3.39.

For `Cn1nc(C(F)F)c(C(=O)NCCc2ccccc2Oc2ccccc2)c1F` [Example 140], the Efficacy in data set [3] turned out to be 95%; in data set [2] (500 ppm of active ingredient), 100%. The logP in data set [1] turned out to be 3.48.

Compound `Cn1nc(C(F)F)c(C(=O)N(CCc2ccccn2)C2CCCC2)c1Cl` [Example 181] yielded a logP in data set [1] of 1.40.

In the case of `Cn1nc(C(F)F)c(C(=O)N(CCc2ccccn2)C2CCCCC2)c1Cl` [Example 180], the logP in data set [1] is reported as 1.58.

Turning to `Cn1nc(C(F)F)c(C(=O)NCCc2ccc(Cl)nc2)c1Cl` [Example 196], in data set [1], the logP is 1.90.

For the compound `Cn1nc(C(F)F)c(C(=S)NCCc2ccc(Cl)cc2Cl)c1Cl` [Example 72], the Efficacy in data set [3] worked out at 100%; in data set [2] (500 ppm of active ingredient), 94%. This compound also showed a logP in data set [1] of 4.11.

For `CC(C)N(CCc1ccc(F)cc1)C(=O)c1c(C(F)F)nn(C)c1F` [Example 23], the logP in data set [1] came to 3.23.

Consider `Cn1nc(C(F)F)c(C(=O)N(CCc2ccccn2)C2CCCCC2)c1F` [Example 175], for which the log partition coefficient (logP) in data set [1] is on record as 1.48.

Regarding `CC(C)N(CCc1ccccc1)C(=O)c1c(C(F)F)nn(C)c1Cl` [Example 7], in data set [1], the logP is reported as 3.35.

Turning to `Cn1nc(C(F)F)c(C(=O)NCC(C)(C)c2ccc(Cl)cc2)c1Cl` [Example 64], the logP in data set [1] was 3.58. Also, the Efficacy in data set [2] (500 ppm of active ingredient) was 100%.

With `Cn1nc(C(F)F)c(C(=O)NCC(C)(C)c2ccc(Oc3ccccc3)cc2)c1F` [Example 157], the Efficacy in data set [3] came out at 80%. The compound also yielded a logP in data set [1] of 4.06.

In data set [1], `CC(CN(C)C(=O)c1c(C(F)F)nn(C)c1F)c1ccncc1` (stereo not shown) [Example 206] gave a logP of 1.60.

With `Cn1nc(C(F)F)c(C(=O)NCC(C)(C)c2ccc(Cl)cc2)c1F` [Example 63], the figures for the Efficacy in data set [3] and in data set [2] (500 ppm of active ingredient) were 94% and 90%, respectively. The log partition coefficient (logP) in data set [1] came out at 3.37.

In data set [1], `Cc1cc(C)c(CCN(C(=O)c2c(C(F)F)nn(C)c2Cl)C(C)C)c(C)c1` [Example 136] showed a log partition coefficient (logP) of 4.49.

The compound `Cn1nc(C(F)F)c(C(=O)NCC(C)(C)c2cccc(Cl)c2)c1Cl` [Example 54] yielded a logP in data set [1] of 3.53.

As to `Cn1nc(C(F)F)c(C(=O)NCC(C)(C)c2cccc(Oc3ccccc3)c2)c1F` [Example 148], the logP in data set [1] was found to be 3.92.

`COC(CNC(=O)c1cn(C)nc1C(F)F)c1ccc(Cl)cc1Cl` (stereo not shown) [1.02 from WO-2008/148570, N-[2-(2,4-dichlorophenyl)-2-methoxyethyl]-3-(difluoromethyl)-1-methyl-1H-pyrazole-4-carboxamide, reference compound]: the Efficacy in data set [2] (100 ppm of active ingredient) is reported as 40%; in data set [2] (100 ppm of active ingredient, listed as 1.02), “less than 40%”; in data set [2] (500 ppm of active ingredient), 80%; in data set [2] (500 ppm of active ingredient, listed as 1.02), “at least 80%”.

For `COCCN(CCc1ccccn1)C(=O)c1c(C(F)F)nn(C)c1Cl` [Example 184], the logP in data set [1] is recorded as 0.63.

Turning to `Cn1nc(C(F)F)c(C(=O)NC2CCCCC2c2ccccc2)c1Cl` (stereo not shown) [Example 214], in data set [1], the logP came to 3.33.

As to `Cn1nc(C(F)F)c(C(=O)N(CCc2ccccc2)C2CCCC2)c1F` [Example 1], in data set [1], the logP was found to be 3.69.

In turn, `Cn1nc(C(F)F)c(C(=S)NC[Si](C)(C)c2ccc(Cl)cc2Cl)c1F` [Example 241] displayed an Efficacy in data set [3] of 100%. Moreover, the logP in data set [1] was found to be 4.74.

`Cn1nc(C(F)F)c(C(=O)N(CCC#N)CCc2ccccc2)c1F` [Example 3]: the logP in data set [1] was found to be 2.39.

In data set [1], `COCCN(CCc1ccccn1)C(=O)c1c(C(F)F)nn(C)c1F` [Example 177] yielded a logP of 0.50.

For the compound `CC(C)N(CCc1ccncc1)C(=O)c1c(C(F)F)nn(C)c1F` [Example 198], the logP in data set [1] is given as 0.78.

In data set [1], `Cn1nc(C(F)F)c(C(=O)NC2CCCCC2c2ccccc2)c1F` (stereo not shown) [Example 213] came in with a logP of 3.29. The same compound gave an Efficacy in data set [2] (500 ppm of active ingredient) of 89%.

Take `Cn1nc(C(F)F)c(C(=O)NCC(C)(C)c2ccc(Oc3ccccc3)cc2)c1Cl` [Example 158]: the logP in data set [1] worked out at 4.21. In data set [2] (500 ppm of active ingredient), this compound had an Efficacy of 80%.

As to `Cc1cc(C)c(CCN(C(=O)c2c(C(F)F)nn(C)c2F)C(C)C)c(C)c1` [Example 134], the logP in data set [1] is given as 4.30.

The compound `Cc1cccnc1CC(NC(=O)c1c(C(F)F)nn(C)c1Cl)C(F)(F)F` (stereo not shown) [Example 186] displayed a logP in data set [1] of 1.70.

Compound `Cn1nc(C(F)F)c(C(=O)NCC(C)(C)c2ccccc2Cl)c1Cl` [Example 46] yielded a logP in data set [1] of 3.48. Also, the Efficacy in data set [2] (500 ppm of active ingredient) was 70%.

In data set [1], `Cn1nc(C(F)F)c(C(=O)NC2CC2c2ccccc2C(F)(F)F)c1Cl` (stereo not shown) [Example 226] registered a logP of 3.15.

As for `CCN(C(=O)c1c(C(F)F)nn(C)c1Cl)C(C)C(=O)c1ccccc1` (stereo not shown) [Example 18], the logP in data set [1] is 2.71.

Compound `CN(CCc1ccccn1)C(=O)c1c(C(F)F)nn(C)c1Cl` [Example 183] displayed a lipophilicity (logP) in data set [1] of 1.63.

Consider `CN(CC(=O)c1ccc(Cl)cc1)C(=O)c1c(C(F)F)nn(C)c1Cl` [Example 62], for which the logP in data set [1] stood at 2.68.

`Cn1nc(C(F)F)c(C(=O)N(CCc2ccccc2)CC(F)(F)F)c1F` [Example 5]: the Efficacy in data set [3] is 80%. Besides, the logP in data set [1] amounted to 3.25.

Take `COc1ccc(CCN(C)C(=O)c2c(C(F)F)nn(C)c2Cl)cc1OC` [Example 131]: the logP in data set [1] came to 2.18.

`CC(C)N(CCc1ccccn1)C(=O)c1c(C(F)F)nn(C)c1F` [Example 178] came in with a logP in data set [1] of 0.85.

For `COc1ccc(CCN(C(=O)c2c(C(F)F)nn(C)c2Cl)C2CCCCC2)cc1OC` [Example 132], the logP in data set [1] came out at 3.53.

In turn, `CC(C)N(CCc1ccncc1)C(=O)c1c(C(F)F)nn(C)c1Cl` [Example 205] had a logP in data set [1] of 0.98.

In data set [1], `Cn1nc(C(F)F)c(C(=O)N(CCc2ccncc2)C2CCCC2)c1Cl` [Example 204] registered a log partition coefficient (logP) of 1.32.

On to `Cn1nc(C(F)F)c(C(=O)N(CCC#N)CCc2ccccc2)c1Cl` [Example 8], for which, in data set [1], the logP came out at 2.53.

Take `Cn1nc(C(F)F)c(C(=O)NCC(C)(C)c2cccc(Oc3ccccc3)c2)c1Cl` [Example 149]: the logP in data set [1] is on record as 4.15.

Take `Cn1nc(C(F)F)c(C(=S)NCC(C)(C)c2ccc(Cl)cc2Cl)c1Cl` [Example 89]: the Efficacy in data set [3] was determined as 100%. The logP in data set [1] was 4.72.

Turning to `CN(CCc1ccccn1)C(=O)c1c(C(F)F)nn(C)c1F` [Example 179], the logP in data set [1] was 1.47.

For the compound `Cc1cc(C)c(CCN(C)C(=O)c2c(C(F)F)nn(C)c2Cl)c(C)c1` [Example 137], the logP in data set [1] was 3.67. The compound also showed an Efficacy in data set [2] (500 ppm of active ingredient) of 90%.

`CC(C)N(CCc1ccccn1)C(=O)c1c(C(F)F)nn(C)c1Cl` [Example 182] gave a logP in data set [1] of 1.00.

`Cn1nc(C(F)F)c(C(=O)NC(C)(C)Cc2cccc(Oc3ccccc3)c2)c1Cl` [Example 144] gave a logP in data set [1] of 4.30. Besides, in data set [2] (500 ppm of active ingredient), the Efficacy is reported as 95%.

Regarding `COCCN(CCc1ccncc1)C(=O)c1c(C(F)F)nn(C)c1F` [Example 199], the logP in data set [1] was 1.56.

`Cn1nc(C(F)F)c(C(=O)NC2CC2c2ccc(F)cc2)c1Cl` (stereo not shown) [Example 221] gave a logP in data set [1] of 2.75.

In turn, `Cn1nc(C(F)F)c(C(=O)N(CCc2ccccc2)C2CCCC2)c1Cl` [Example 6] came in with a logP in data set [1] of 3.89.

`Cn1nc(C(F)F)c(C(=O)NCCc2ccc(Cl)nc2)c1F` [Example 197] yielded a logP in data set [1] of 1.78.

The compound `COc1ccc(CCN(C(=O)c2c(C(F)F)nn(C)c2F)C2CCCCC2)cc1OC` [Example 130] displayed a logP in data set [1] of 3.42.

For `Cn1nc(C(F)F)c(C(=O)NCC(C)(C)c2cc(Cl)cc(Cl)c2)c1Cl` [Example 114], the Efficacy in data set [3] is reported as 80%. The logP in data set [1] is 4.01.

In turn, `Cn1nc(C(F)F)c(C(=O)NCCc2c(F)c(F)nc(F)c2F)c1Cl` [Example 209] displayed a log partition coefficient (logP) in data set [1] of 2.60.

In the case of `Cn1nc(C(F)F)c(C(=O)N(CCc2ccncc2)C2CCCCC2)c1Cl` [Example 203], the logP in data set [1] is 1.50.

In the case of `Cn1nc(C(F)F)c(C(=S)N(C2CC2)C2CCCCC2(C)c2ccccc2)c1F` (mixture of isomers) [Example 219], the logP in data set [1] (HPLC on reversed-phase column (C 18), 40° C., 0.1% aqueous formic acid and acetonitrile, linear gradient 10% to 90% acetonitrile) was 5.01 and 5.11.

`Cn1nc(C(F)F)c(C(=O)N(CCc2ccccn2)C2CCCC2)c1F` [Example 176] registered a logP in data set [1] of 1.29.

Regarding `Cn1nc(C(F)F)c(C(=O)N(CCc2ccncc2)C2CCCCC2)c1F` [Example 200], the log partition coefficient (logP) in data set [1] is on record as 1.39.

On to `Cn1nc(C(F)F)c(C(=O)N(C[Si](C)(C)c2ccc3ccccc3c2)C2CC2)c1Cl` [Example 246], for which, in data set [1], the logP is given as 4.51.

Compound `Cn1nc(C(F)F)c(C(=O)NCCc2ccccc2Oc2ccccc2)c1Cl` [Example 141] yielded a logP in data set [1] of 3.64. This compound registered an Efficacy in data set [2] (500 ppm of active ingredient) of 80%.

In the case of `Cn1nc(C(F)F)c(C(=O)NC2CC2c2cccc(F)c2)c1Cl` (stereo not shown) [Example 223], the logP in data set [1] was found to be 2.75.

Consider `Cn1nc(C(F)F)c(C(=O)N(CCc2ccncc2)C2CCCC2)c1F` [Example 201], for which the lipophilicity (logP) in data set [1] is 1.20.

As for `CCN(CCc1ccc(Cl)cc1)C(=S)c1c(C(F)F)nn(C)c1F` [Example 58], in data set [3], the Efficacy worked out at 100%. Moreover, the logP in data set [1] was 3.92.

For the origin of these results see patent US9232799B2, “N-[(het)arylethyl)] pyrazole(thio)carboxamides and their heterosubstituted analogues” (BAYER INTELLECTUAL PROPERTY GMBH, priority 2010, dated 2016).
